The target in the test is T1, Estrogen receptor (Homo sapiens, UniProt P03372).
T1 sequence (P03372 whole entry): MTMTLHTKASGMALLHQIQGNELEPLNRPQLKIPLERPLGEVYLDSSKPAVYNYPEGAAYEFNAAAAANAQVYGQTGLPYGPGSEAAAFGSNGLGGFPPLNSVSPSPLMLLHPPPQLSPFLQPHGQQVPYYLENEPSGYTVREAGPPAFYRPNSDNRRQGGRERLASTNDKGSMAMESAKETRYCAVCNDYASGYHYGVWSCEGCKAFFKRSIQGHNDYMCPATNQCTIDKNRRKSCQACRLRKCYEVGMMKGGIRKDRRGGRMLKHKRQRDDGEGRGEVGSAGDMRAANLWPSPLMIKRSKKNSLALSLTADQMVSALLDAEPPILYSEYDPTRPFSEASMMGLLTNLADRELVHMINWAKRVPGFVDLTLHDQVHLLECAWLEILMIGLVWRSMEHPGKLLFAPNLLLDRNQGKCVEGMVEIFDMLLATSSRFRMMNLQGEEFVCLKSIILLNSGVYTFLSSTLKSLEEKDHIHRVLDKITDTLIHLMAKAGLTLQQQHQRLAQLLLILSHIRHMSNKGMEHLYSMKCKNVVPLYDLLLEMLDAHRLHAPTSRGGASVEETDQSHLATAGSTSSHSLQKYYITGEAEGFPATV
In words: Induction of ERalpha protein degradation in human MCF7 cells assessed as reduction in ERalpha protein levels incubated for 24 hrs by In-cell western assay. As to conditions: read-out: IC50 (the source's name).
Regarding `O=C(NCCCCOc1ccc(C(=C2C3CC4CC(C3)CC2C4)c2ccc(O)cc2)cc1)[C@H]1C[C@@H]2C=C[C@H]1C2`, the DC50 came out at 0.5 nM.
In the case of `CC(C)(C)OC(=O)N[C@@H](Cc1c[nH]c2ccccc12)C(=O)NCCCCOc1ccc(C(=C2C3CC4CC(C3)CC2C4)c2ccc(O)cc2)cc1` it was 0.5 nM; in that of `O=C(NCCCCOc1ccc(C(=C2C3CC4CC(C3)CC2C4)c2ccc(O)cc2)cc1)[C@H]1CC[C@H](C(F)(F)F)CC1`, 2 nM.
